Results as given in PubChem BioAssay AID248 (DTP/NCI, 2004).
Values joined by “and” are separate entries in the source; they are usually repeats but may differ in a detail not shown here. Identical values can stand only once. Inconclusive results and toxic doses are left out. Rule as the data show it: active = T/C of 150% or more; inactive = T/C below 125%.

System: L1210 leukemia ip in BDF1 mice, survival T/C
Assay: NCI In Vivo Anticancer Drug Screen. Data for tumor model L1210 Leukemia (intraperitoneal) in B6D2F1 (BDF1) mice
Conditions: endpoint: mean survival time, higher = longer survival
In short: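 In this screen, tumor-bearing mice given compound are compared to those given vehicle, and their survival values are reported as a treated-to-control quotient.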

[1] = dose: 100.0 mg/kg/injection, schedule: Q01DX009 (ip), vehicle: saline with Tween-80
[2] = dose: 200.0 mg/kg/injection, schedule: Q01DX009 (ip), vehicle: saline with Tween-80
[3] = dose: 400.0 mg/kg/injection, schedule: Q01DX009 (ip), vehicle: saline with Tween-80
[4] = dose: 100.0 mg/kg/injection, schedule: Q01DX009 (ip), vehicle: Klucel (hydroxypropylcellulose) (HPC)
[5] = dose: 200.0 mg/kg/injection, schedule: Q01DX009 (ip), vehicle: Klucel (hydroxypropylcellulose) (HPC)
[6] = dose: 100.0 mg/kg/injection, schedule: Q04DX003 (ip), vehicle: Klucel (hydroxypropylcellulose) (HPC)
[7] = dose: 200.0 mg/kg/injection, schedule: Q04DX003 (ip), vehicle: Klucel (hydroxypropylcellulose) (HPC)
[8] = dose: 400.0 mg/kg/injection, schedule: Q04DX003 (ip), vehicle: Klucel (hydroxypropylcellulose) (HPC)
[9] = dose: 100.0 mg/kg/injection, schedule: Q01DX001 (ip), vehicle: saline with Tween-80
[10] = dose: 100.0 mg/kg/injection, schedule: Q01DX001 (ip), vehicle: Klucel (hydroxypropylcellulose) (HPC)
[11] = dose: 200.0 mg/kg/injection, schedule: Q01DX001 (ip), vehicle: Klucel (hydroxypropylcellulose) (HPC)
[12] = dose: 400.0 mg/kg/injection, schedule: Q01DX001 (ip), vehicle: Klucel (hydroxypropylcellulose) (HPC)

Measured: T/C

CSc1n[nH]c(Cl)n1
inactive: dose: 25.0 mg/kg/injection, schedule: Q04DX002 (ip), vehicle: saline with Tween-80 98 % of control and 103 % of control | dose: 50.0 mg/kg/injection, schedule: Q04DX002 (ip), vehicle: saline with Tween-80 102 % of control and 106 % of control | dose: 100.0 mg/kg/injection, schedule: Q04DX002 (ip), vehicle: saline with Tween-80 103 % of control and 107 % of control and 114 % of control | dose: 200.0 mg/kg/injection, schedule: Q04DX002 (ip), vehicle: saline with Tween-80 104 % of control and 113 % of control and 90 % of control | dose: 400.0 mg/kg/injection, schedule: Q04DX002 (ip), vehicle: saline with Tween-80 93 % of control

CCCCOCN1C(=O)N(COCCCC)C(=O)C(CC)(c2ccccc2)C1=O
inactive: [1] 97 % of control | [2] 94 % of control | [3] 87 % of control

CC(=O)Oc1ccc(OC(C)=O)c2c1C(=O)c1ccccc1C2=O
inactive: dose: 50.0 mg/kg/injection, schedule: Q01DX001 (ip), vehicle: carboxymethylcellulose (CMC) 104 % of control | dose: 100.0 mg/kg/injection, schedule: Q01DX001 (ip), vehicle: carboxymethylcellulose (CMC) 110 % of control | dose: 200.0 mg/kg/injection, schedule: Q01DX001 (ip), vehicle: carboxymethylcellulose (CMC) 102 % of control | dose: 400.0 mg/kg/injection, schedule: Q01DX001 (ip), vehicle: carboxymethylcellulose (CMC) 110 % of control

CCC12C=CCN3CCC4(C(=C(C(=O)OC)C1)Nc1cc(OC)ccc14)C32 (stereo not drawn)
inactive: dose: 100.0 mg/kg/injection, schedule: Q04DX002 (ip), vehicle: saline 110 % of control | dose: 200.0 mg/kg/injection, schedule: Q04DX002 (ip), vehicle: saline 121 % of control

CC1=NCC[N-]CC[N-]CCN=C(C)C2CCCC1[N-]2.[Mn+3]
inactive: dose: 10.0 mg/kg/injection, schedule: Q01DX001 (ip), vehicle: saline 105 % of control | dose: 20.0 mg/kg/injection, schedule: Q01DX001 (ip), vehicle: saline 102 % of control | dose: 40.0 mg/kg/injection, schedule: Q01DX001 (ip), vehicle: saline 102 % of control

CCOC(=O)c1ccc(NC(=O)Oc2cc(C)ccc2C)cc1
inactive: [4] 93 % of control | [5] 92 % of control | dose: 400.0 mg/kg/injection, schedule: Q01DX009 (ip), vehicle: Klucel (hydroxypropylcellulose) (HPC) 90 % of control

C=CCC(C)(C)/C=N/N
inactive: dose: 37.5 mg/kg/injection, schedule: Q04DX003 (ip), vehicle: saline 101 % of control | dose: 75.0 mg/kg/injection, schedule: Q04DX003 (ip), vehicle: saline 102 % of control | dose: 150.0 mg/kg/injection, schedule: Q04DX003 (ip), vehicle: saline 98 % of control

Cn1c(N)c(C(C[N+](=O)[O-])c2ccccc2)c(=O)n(C)c1=O (stereo not drawn)
inactive: dose: 50.0 mg/kg/injection, schedule: Q01DX009 (ip), vehicle: Klucel (hydroxypropylcellulose) (HPC) 95 % of control | [4] 92 % of control | [5] 98 % of control

COc1ccc(/C=N/NC(=O)CNC(=O)c2ccccc2)cc1
inactive: dose: 25.0 mg/kg/injection, schedule: Q01DX009 (ip), vehicle: saline with Tween-80 93 % of control | dose: 50.0 mg/kg/injection, schedule: Q01DX009 (ip), vehicle: saline with Tween-80 95 % of control | [1] 91 % of control

CC1CC(O)=C(c2ccccc2)P1(=O)Cc1ccccc1 (stereo not drawn)
inactive: [6] 95 % of control | [7] 95 % of control | [8] 89 % of control

C=C1CC(=O)N(c2ccc(Cl)cc2)C1=O
inactive: dose: 25.0 mg/kg/injection, schedule: Q01DX001 (ip), vehicle: saline with Tween-80 93 % of control | dose: 50.0 mg/kg/injection, schedule: Q01DX001 (ip), vehicle: saline with Tween-80 98 % of control | [9] 97 % of control

CC(=O)n1[nH]c(=O)c2ccccc2c1=O
inactive: [10] 103 % of control | [11] 105 % of control | [12] 103 % of control

CCOC(=O)C(NC=O)(C(=O)OCC)C(C)c1c[nH]c2ccccc12 (stereo not drawn)
inactive: [9] 93 % of control | [1] 102 % of control | dose: 200.0 mg/kg/injection, schedule: Q01DX001 (ip), vehicle: saline with Tween-80 94 % of control | [2] 98 % of control | dose: 400.0 mg/kg/injection, schedule: Q01DX001 (ip), vehicle: saline with Tween-80 100 % of control | [3] 94 % of control

C[N+]1(CCCNC(=O)Nc2ccc(Cl)cc2)CCOCC1
inactive: dose: 12.5 mg/kg/injection, schedule: Q04DX002 (ip), vehicle: saline 105 % of control | dose: 25.0 mg/kg/injection, schedule: Q04DX002 (ip), vehicle: saline 102 % of control | dose: 50.0 mg/kg/injection, schedule: Q04DX002 (ip), vehicle: saline 97 % of control

CC(C)(C)C1(C)CN(N=O)C(=O)O1 (stereo not drawn)
inactive: dose: 12.5 mg/kg/injection, schedule: Q04DX003 (ip), vehicle: Klucel (hydroxypropylcellulose) (HPC) 114 % of control | dose: 25.0 mg/kg/injection, schedule: Q04DX003 (ip), vehicle: Klucel (hydroxypropylcellulose) (HPC) 104 % of control

O=c1ccccn1Cc1ccccc1
inactive: [6] 106 % of control | [7] 117 % of control | [8] 98 % of control

O=C(Nc1cccc2ccccc12)OCC(Cl)(Cl)Cl
inactive: dose: 100.0 mg/kg/injection, schedule: Q01DX009 (ip), vehicle: carboxymethylcellulose (CMC) 97 % of control and 98 % of control | dose: 100.0 mg/kg/injection, schedule: Q04DX002 (ip), vehicle: Klucel (hydroxypropylcellulose) (HPC) 108 % of control | dose: 100.0 mg/kg/injection, schedule: Q04DX002 (ip), vehicle: carboxymethylcellulose (CMC) 108 % of control and 90 % of control | dose: 100.0 mg/kg/injection, schedule: Q04DX003 (ip), vehicle: carboxymethylcellulose (CMC) 103 % of control | dose: 200.0 mg/kg/injection, schedule: Q01DX009 (ip), vehicle: carboxymethylcellulose (CMC) 95 % of control and 90 % of control | dose: 200.0 mg/kg/injection, schedule: Q04DX002 (ip), vehicle: Klucel (hydroxypropylcellulose) (HPC) 96 % of control | dose: 200.0 mg/kg/injection, schedule: Q04DX002 (ip), vehicle: carboxymethylcellulose (CMC) 95 % of control and 97 % of control | dose: 200.0 mg/kg/injection, schedule: Q04DX003 (ip), vehicle: carboxymethylcellulose (CMC) 97 % of control | dose: 400.0 mg/kg/injection, schedule: Q01DX009 (ip), vehicle: carboxymethylcellulose (CMC) 95 % of control and 97 % of control | dose: 400.0 mg/kg/injection, schedule: Q04DX002 (ip), vehicle: Klucel (hydroxypropylcellulose) (HPC) 108 % of control | dose: 400.0 mg/kg/injection, schedule: Q04DX002 (ip), vehicle: carboxymethylcellulose (CMC) 97 % of control and 87 % of control | dose: 400.0 mg/kg/injection, schedule: Q04DX003 (ip), vehicle: carboxymethylcellulose (CMC) 94 % of control

CCOc1ccc(N=Nc2c(O)n(-c3ccccc3C)c(=S)n(-c3ccccc3OC)c2=O)cc1
inactive: dose: 75.0 mg/kg/injection, schedule: Q01DX003 (ip), vehicle: Klucel (hydroxypropylcellulose) (HPC) 91 % of control | dose: 150.0 mg/kg/injection, schedule: Q01DX003 (ip), vehicle: Klucel (hydroxypropylcellulose) (HPC) 94 % of control | dose: 300.0 mg/kg/injection, schedule: Q01DX003 (ip), vehicle: Klucel (hydroxypropylcellulose) (HPC) 91 % of control

O=C(OC1CCC2CC21)c1ccc([N+](=O)[O-])cc1[N+](=O)[O-] (stereo not drawn)
inactive: [10] 98 % of control | [11] 95 % of control | [12] 106 % of control

COCP(=O)(OC)OC
inactive: dose: 100.0 mg/kg/injection, schedule: Q04DX003 (ip), vehicle: saline 116 % of control | dose: 200.0 mg/kg/injection, schedule: Q04DX003 (ip), vehicle: saline 94 % of control | dose: 400.0 mg/kg/injection, schedule: Q04DX003 (ip), vehicle: saline 100 % of control
